Assay results as given in patent US20150274787A1, “METHOD FOR RECOMBINANT PRODUCTION OF LABYRINTHOPEPTINS AND FUNCTIONAL DERIVATIVES THEREOF” (priority 2011, published 2015).
*1 amine or outer side, *2 acyl side, *3 side chain or, on linkers, in order; H or OH if unused. Where a SMILES comes first, the peptide text is derived from it. Bridges are numbered along the chain shown (N, C = ends). Where no end group is shown, it is not given here. [ ]: non-standard residue; d: D form. The star is where a group is joined. X1 = NC1=N[C@@H]([C@H](N[*:1])C(=O)[*:2])C[C@H](O)N1; ΔAla(Z-3-ureido) = NC(=O)N/C=C(\N)C(=O)O; β3hOrn = NCCC[C@H](N)CC(=O)*; Dap = NC[C@H](N)C(=O)O

Legend:
A. namibiensis = experiment: Testing selection markers (antibiotic resistance) suitable for genetic manipulations of A. namibiensis; on Growth after 4 days: key: −: no growth; +: slight growth; ++: medium growth; +++: strong growth; on Growth after 7 days: key: −: no growth; +: slight growth; ++: medium growth; +++: strong growth; format: cell-based, Actinomadura namibiensis; conditions: for Growth after 4 days / Growth after 7 days: A. namibiensis
Protocol: An apramycin resistance gene was used as selectable marker for vectors used in this study because from all eight tested antibiotics A. namibiensis was […] to apramycin (50 μg/ml). Initially for establishing a way in which DNA can be introduced into A. namibiensis the typical cloning vectors for Streptomyces strains were used. Plasmid pUWLoriT which can replicate autonomously in Streptomyces and plasmid pSET152 which can integrate site-specifically at the bacteriophage ΦC31 attachment site (18) (7) were used. […] Although Actinomaduras and Streptomyces are related it is still possible that origin of replication (ori) for Streptomyces is not recognized by A. namibiensis (9). Description of similar difficulties can be found in the literature (17). This led to the use of vectors harboring replicons of Actinomadura strains: pSETermEΔHindIII_oriCLL4, pK18mobXylE_oripCLL4 and pCLL4_ori_apra. Also a non-replicating plasmid pK18mob2 with a fragment coding for the LabKC modifying enzyme was used for transformation of A. namibiensis.

human P2X4 receptor = target: T1, human P2X4 receptor (Homo sapiens, UniProt Q99571); experiment: IC50 determination by patch clamp on hP2X4_HEK-FITR cell line (in vitro anti-pain assay); format: cell-based; conditions: recombinant human P2X4 in HEK cells, 10 μM ATP, holding potential −60 mV, 0.3 to 90 μM
T1 construct: expressed in transfected cells; host or cells: HEK cells (hP2X4_HEK-FITR), expression induced with doxycyclin
T1 sequence (Q99571 1-388): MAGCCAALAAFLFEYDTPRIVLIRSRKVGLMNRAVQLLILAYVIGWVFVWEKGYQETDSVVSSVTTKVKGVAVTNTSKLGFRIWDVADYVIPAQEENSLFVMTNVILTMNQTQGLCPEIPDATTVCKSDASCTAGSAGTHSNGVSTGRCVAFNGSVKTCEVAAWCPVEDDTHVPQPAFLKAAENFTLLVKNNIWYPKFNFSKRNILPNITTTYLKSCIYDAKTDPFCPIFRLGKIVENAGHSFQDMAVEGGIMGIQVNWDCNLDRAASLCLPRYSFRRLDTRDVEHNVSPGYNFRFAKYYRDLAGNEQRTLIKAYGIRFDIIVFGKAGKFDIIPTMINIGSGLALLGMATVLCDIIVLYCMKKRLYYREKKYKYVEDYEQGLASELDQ
From the text: Evaluation of anti-pain activity of labyrinthopeptin A2 and its structural analogs LabA2_L14A and LabA2 F15A in an in vitro assay (IC50 determination of LabA2, LabA2_L14A and LabA2_F15A on hP2X4_HEK-FITR-cell line) The use of labyrinthopeptin A2 and its derivatives, in particular LabA2_L14A and LabA2_F15A, as analgesics was investigated for neuropathic pain based on their inhibitory effects on P2X4 receptors (Nagata K et al., 2009).
Recombinant human P2X4 receptor was expressed in HEK cells (hP2X4_HEK-FITR). hP2X4 expression was induced with doxycyclin 1 μg/ml for 24 h to 48 h. The patch clamp experiment has been performed under standard conditions using an axopatch-200B amplifier and pClamp v10 acquisition software (Axon Instruments Inc, Foster City, Calif., USA). Cells were continuously superfused with an external solution consisting of (in mM) 130 CsCl, 4 NaCl, 1 MgCl2, 1 CaCl2, 10 EGTA (free Ca^2+=6.7 nM) and 10 HEPES (pH 7.4 with CsOH). This was replaced with a […] external solution consisting of (in mM) 145 NaCl, 4 KCl, 2 CaCl2, 1 MgCl2 and 10 HEPES (pH 7.4 with NaOH). 250 ms application of 10 μM ATP (Sigma) every 10 sec was performed. […] Currents were measured at a holding potential of −60 mV.
Results were calculated using Origin7.5 software (FIG. 27).

[1] = target: T2, Recombinant human P2X4 receptor (human, UniProt Q99571 1-388); experiment: cell-based or functional assay
T2 sequence (looked up): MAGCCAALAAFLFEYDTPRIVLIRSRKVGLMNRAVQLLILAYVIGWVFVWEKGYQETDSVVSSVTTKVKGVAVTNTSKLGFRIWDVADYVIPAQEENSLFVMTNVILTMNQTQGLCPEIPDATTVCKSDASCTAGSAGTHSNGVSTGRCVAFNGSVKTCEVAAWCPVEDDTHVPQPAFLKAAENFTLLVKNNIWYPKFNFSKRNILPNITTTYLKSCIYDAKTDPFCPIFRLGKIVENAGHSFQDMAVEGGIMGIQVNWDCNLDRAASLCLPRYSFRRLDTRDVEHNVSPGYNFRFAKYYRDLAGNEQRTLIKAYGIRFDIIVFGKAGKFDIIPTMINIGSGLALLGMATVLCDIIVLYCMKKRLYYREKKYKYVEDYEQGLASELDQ

**Q.** For CN[C@@H]1[C@@H](O[C@H]2O[C@H](CO)[C@@H](N)[C@H](O)[C@H]2O)OC2C[C@@H](N)[C@@H](O[C@H]3[C@H](O)[C@@H](O)[C@H](N)C[C@@H]3N)OC2[C@@H]1O (stereo partly shown) [Apramycin], which “sensitivity of A. namibiensis to antibiotic” value (A. namibiensis; 50 μg/ml) is on record?
**A.** Its value is “sensitive”.

**Q.** What about the “Growth after 4 days” value (A. namibiensis; antibiotic conc. 25 μg/ml) of the same molecule?
**A.** The value was “−”.

**Q.** What about the “Growth after 7 days” value (A. namibiensis; antibiotic conc. 25 μg/ml) of the same molecule?
**A.** Its value is “+”.

**Q.** And the “Growth after 4 days” value (A. namibiensis; antibiotic conc. 50 μg/ml)?
**A.** The value was “−”.

**Q.** What about the “Growth after 7 days” value (A. namibiensis; antibiotic conc. 50 μg/ml) of the same molecule?
**A.** The value was “−”.

**Q.** Which “Growth after 4 days” value (A. namibiensis; antibiotic conc. 50 μg/ml) does the source give for NC[C@H]1O[C@H](O[C@H]2[C@H](O)[C@@H](O[C@H]3O[C@H](CO)[C@@H](O)[C@H](N)[C@H]3O)[C@H](N)C[C@@H]2N)[C@H](O)[C@@H](O)[C@@H]1O [Kanamycin] here?
**A.** Its value is “+++”.

**Q.** And the “Growth after 7 days” value (A. namibiensis; antibiotic conc. 50 μg/ml)?
**A.** The value was “+++”.

**Q.** With C[C@@H]1O[C@@H]1P(=O)(O)O [Phosphomycin] as the molecule, how does the “Growth after 4 days” value (A. namibiensis; antibiotic conc. 400 μg/ml) read?
**A.** The value was “+++”.

**Q.** And the “Growth after 7 days” value (A. namibiensis; antibiotic conc. 400 μg/ml)?
**A.** The value was “+++”.

**Q.** Which “Growth after 4 days” value (A. namibiensis; antibiotic conc. 100 μg/ml) does the source give for CN[C@@H]1[C@H](O)[C@H](NC)[C@H]2O[C@@]3(O)C(=O)C[C@@H](C)O[C@H]3O[C@@H]2[C@H]1O [Spectinomycin] here?
**A.** The value was “+++”.

**Q.** And the “Growth after 7 days” value (A. namibiensis; antibiotic conc. 100 μg/ml)?
**A.** Its value is “+++”.

**Q.** What does the source list for [H]/N=C(/N)N[C@H]1[C@H](O)[C@@H](O)[C@H](O[C@@H]2O[C@@H](C)[C@](O)(C=O)[C@H]2O[C@@H]2O[C@@H](CO)[C@H](O)[C@@H](O)[C@@H]2NC)[C@@H](N/C(N)=N\[H])[C@@H]1O [Streptomycin]?
**A.** Growth after 4 days (A. namibiensis; antibiotic conc. 30 μg/ml): +; Growth after 7 days (A. namibiensis; antibiotic conc. 30 μg/ml): ++

**Q.** What does the source list for C=C(NC(=O)C(=C)NC(=O)c1csc(C2=N[C@@H]3c4csc(n4)[C@H]4NC(=O)c5csc(n5)[C@H]([C@](C)(O)[C@@H](C)O)NC(=O)[C@H]5CSC(=N5)/C(=C/C)NC(=O)[C@H]([C@@H](C)O)NC(=O)c5csc(n5)[C@]3(CC2)NC(=O)[C@H](C)NC(=O)C(=C)NC(=O)[C@H](C)NC(=O)[C@H]([C@@H](C)CC)N[C@@H]2C=Cc3c([C@H](C)O)cc(nc3[C@H]2O)C(=O)O[C@@H]4C)n1)C(N)=O [Thiostrepton]?
**A.** Growth after 4 days (A. namibiensis; antibiotic conc. 25 μg/ml): −; Growth after 7 days (A. namibiensis; antibiotic conc. 25 μg/ml): +; sensitivity of A. namibiensis to antibiotic (A. namibiensis; concentration not given): not sensitive

**Q.** What does the source list for NCCC[C@H](N)CC(=O)N[C@H]1CNC(=O)[C@H]([C@H]2C[C@H](O)NC(N)=N2)NC(=O)/C(=C/NC(N)=O)NC(=O)[C@H](CO)NC(=O)[C@H](CO)NC1=O [Viomycin] (β3hOrn-[Dap]SS[ΔAla(Z-3-ureido)][X1]; lactam 1-C)?
**A.** Growth after 4 days (A. namibiensis; antibiotic conc. 30 μg/ml): +; Growth after 7 days (A. namibiensis; antibiotic conc. 30 μg/ml): +

**Q.** What does the source list for Hydromycin?
**A.** Growth after 4 days (A. namibiensis; antibiotic conc. 50 μg/ml): ++; Growth after 7 days (A. namibiensis; antibiotic conc. 50 μg/ml): +++

**Q.** LabA2_F15A (SDWSLWECCSTGSLAACC) was tested. Which “IC50 (concentration of a substance that blocks 50% of channels)” value (human P2X4 receptor) did it give?
**A.** Its value is “could not be determined”.

B1: LabA2_L14A (peptide)
peptide: SDWSLWECCSTGSAFACC
modifications: thioether (positions not given here); not fully specified (residues 1, 4, 10, 13, bridges); also: labionin residues as in LabA2: methylene bridges between alpha-C atoms, places not given here
**Q.** Which “IC50 of inhibition of ATP-evoked currents (patch clamp, hP2X4_HEK-FITR cells)” value [1] does the source give for B1 here?
**A.** The value was 30 µM.
